Assay results published in patent US11407741B2, “Compounds and their use as selective inhibitors of caspase-2” (priority 2017, dated 2022).
Where a SMILES comes first, the peptide text is derived from it. [ ]: non-standard residue; d: D form. The star is where a group is joined. Pro(3S-CH2tBu) = CC(C)(C)C[C@H]1CCN[C@@H]1C(=O)O; Quinaldoyl = O=C(c1ccc2ccccc2n1)*; X1 = c1ncc(CO*)s1

Target: T1, Caspase-3 (Homo sapiens, UniProt P42574)
T1 construct: the Caspase-2 and Caspase-3 are human recombinant active enzymes; purchased R&D Systems 707-C3-010/CF
T1 sequence (P42574 29-175 limits assumed): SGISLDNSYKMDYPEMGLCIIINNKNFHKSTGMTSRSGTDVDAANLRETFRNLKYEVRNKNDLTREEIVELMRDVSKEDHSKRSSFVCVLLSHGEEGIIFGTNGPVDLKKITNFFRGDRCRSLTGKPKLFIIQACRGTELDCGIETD
T1 sequence (P42574 176-277 limits assumed): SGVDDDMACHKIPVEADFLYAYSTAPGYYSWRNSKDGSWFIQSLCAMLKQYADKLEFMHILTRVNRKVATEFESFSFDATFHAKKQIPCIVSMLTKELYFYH
Test: Caspase-3 inhibition assay for reversible inhibitors (IC50, Ki)
Format: biochemical
Details: compared with Ac-VDVAD-CHO
Description: A preliminary step in the characterization of an inhibitor is the determination of its IC50. The IC50 is the necessary concentration of an inhibitor to decrease the enzyme activity by 50% of its maximum and uninhibited value.
The compound, at different concentrations, is incubated with the enzyme and buffer for 30 minutes at 37° C. to allow formation of the Enzyme-Inhibitor complex. The reaction is initiated by addition of buffer and substrate, and then activity is measured over 15 minutes for the determination of initial velocities.
The enzyme and the inhibitor (or DMSO as control) are incubated for 30 minutes at 37° C. The complex thus formed is diluted to 100th in the buffer/substrate mixture and then the activity measurement is started over 20 minutes. The initial rate obtained for the DMSO represents the 100% activity and will serve as a reference for the quantification of the residual activity of the enzyme in the presence of the inhibitor.
The reaction is started over 20 minutes upon addition of the buffer-substrate mixture.
Initial velocity values in RFU·min^−1 are reduced to Specific Activity (SA)values (pmol/min/μg enzyme) from an AMC standard range (1 RFU→0.02 pmol).
The evolution of the ratio 1/SA as a function of 1/[S] makes it possible to obtain the so-called double-inverse graph of Lineweaver-Burk from equation 4 (eq.4) where Vmaxapp and KMapp are the parameters which vary according to the type inhibition and as a function of inhibitor concentration. The intersection of the lines obtained for increasing inhibitor concentrations makes it possible to distinguish different types of inhibitors.
A secondary graph, obtained from the values of the slopes of the Lineweaver-Burk plot as a function of the concentration of inhibitor, makes it possible to obtain the value of the Ki. Its value is given by the abscissa point at the origin. […]

CC(C)[C@H](NC(=O)c1ccc2ccccc2n1)C(=O)N[C@@H](CC(=O)O)C(=O)N[C@H](C(=O)N1CC[C@H](CC(C)(C)C)[C@H]1C(=O)N[C@@H](CC(=O)O)C(=O)OCc1cncs1)C(C)C [Compound 3, (S)-4-(((S)-1-((2S,3S)-2-(((S)-3-carboxy-1-oxo-1-(thiazol-5 - ylmethoxy)propan-2-yl)carbamoyl)-3-neopenthylpyrrolidin-1-yl)-3-methyl-1-oxobutan-2-yl)amino)-3-((S)-3-methyl-2-(quinoline-2-carboxamido)butanamido)-4-oxobutanoic acid] (Quinaldoyl-VDV[Pro(3S-CH2tBu)]D-X1)
potency on Caspase-3: considerably less potent on Caspase-3 than Ac-VDVAD-CHO
